1 compound from publication PMC2430196, “Antagonist affinity measurements at the Gi-coupled human histamine H3 receptor expressed in CHO cells” (BMC Pharmacology, 2008) can be followed below.

The target of assay [1] is T1, human histamine H3 receptor (Homo sapiens, UniProt Q9Y5N1). Put plainly: CRE-SPAP gene transcription in forskolin-stimulated CHO-H3-SPAP cells. The note with it: CRE-SPAP; for Schild slope: 3 antagonist concentrations.
Procedure: (§1) The transfected cells were selected for neomycin resistance (1 mg/ml; for H3 receptor) and hygromycin resistance (200 μg/ml; for CRE-SPAP reporter gene) for 3 weeks and passaged twice during in this period. A single clone was then isolated by dilution cloning to give a clonal line (CHO-H3-SPAP cells). The parent cell CRE-SPAP was also used for control experiments (CHO-SPAP cells).
(§2) Cells were grown to confluence in 96-well tissue culture plates. The cells were then serum starved by removing the media and replacing it with 100 μl serum free media (DMEM/F12 containing 2 mM L-glutamine). […] Where used, pertussis toxin, at a final concentration of 100 ng/ml was added to the serum-free media and thus incubated with the cells for 24 hours. On the day of experimentation, the serum-free media was removed and replaced with 100 μl serum-free media or 100 μl serum-free media containing an antagonist at the final required concentration and the cells incubated for 1 hour. Agonist in 10 μl (diluted in serum free media) was then added to each well and the cells incubated for 10 minutes. Forskolin was then added to all but the basal wells to give a final well concentration of 4 μM and the plates incubated for 5 hours. After 5 hours, the media and all drugs were removed. […] The plates were then incubated at 65°C for 30 minutes to destroy any endogenous phosphatases. After cooling to 37°C, 100 μl 5 mM pNPP in diethanolamine buffer was added to each well and the plates incubated at 37°C in a normal atmosphere until the yellow colour developed.
(§3) Sigmoidal concentration-response curves were fitted to the data using Graphpad Prism 2 and the following equation:
(§4) Antagonist KD values were then calculated from the shift of the agonist concentration responses in the presence of a fixed concentration of antagonist using the following equation:
(§5) where DR (dose ratio) is the ratio of the agonist concentration required to stimulate an identical response in the presence and absence of a fixed concentration of antagonist [B].
(§6) In experiments where three different fixed concentrations of the same antagonist were used, Schild plots were constructed using the following equation:
Log (DR-1) = log [B] - log (KD)
(§7) These points were then fitted to a straight line.
(§8) Partial agonist dissociation constants were therefore estimated according to the method of Stephenson [35] using the following equation:
(§9) KD partial agonist=X.[P]/1−Xwhere X=[A2]−[A1]/[A3]
In assay [2] the target is T1, human histamine H3 receptor. The experiment in a line: 3H-cAMP accumulation in forskolin-stimulated CHO-H3-SPAP cells. Further details: secondarily transfected with the full length human histamine H3 receptor; host or cells: CHO-K1 cells with CRE-SPAP reporter (clonal line CHO-H3-SPAP). The assay is classed as cell-based. The note with it: 5 hours incubation with ligand, n = 4. As to the method: Cells were grown to confluence in 24-well plates. The media was removed and the cells pre-labelled with ^3H-adenine by incubation with 2 μCi/ml ^3H-adenine in serum-free media (0.5 ml per well) for 3 hours. The ^3H-adenine was then removed and the cells washed by the addition then removal of 1 ml serum-free media. […] Forskolin (final concentration of 10 μM) was then added to all but the basal wells and the plates incubated for 30 minutes. The reaction was terminated by the addition of 50 μl concentrated HCl per well and the plates were then frozen. Later, the plates were thawed and ^3H-cAMP separated from other ^3H-nucleotides by sequential Dowex and alumina column chromatography, as previously described.
When the intrinsic efficacy of the antagonist ligands was examined, the antagonists were incubated for 5 hours at 37°C in order to maximise the chance of detecting any changes in ^3H-cAMP accumulation.
Response=Emax×[A]/IC50+[A]

For assay [3] the target is unchanged.
Procedure: as §1, §2, §3, §4, §5, §6
Log (DR-1) = log [B] - log (KD)
as §7, §8, §9

In general, Kd refers to the constant that tells how readily two partners part at equilibrium. The low end stands for tighter binding, the high end for weaker binding.

T1 sequence (Q9Y5N1 whole entry): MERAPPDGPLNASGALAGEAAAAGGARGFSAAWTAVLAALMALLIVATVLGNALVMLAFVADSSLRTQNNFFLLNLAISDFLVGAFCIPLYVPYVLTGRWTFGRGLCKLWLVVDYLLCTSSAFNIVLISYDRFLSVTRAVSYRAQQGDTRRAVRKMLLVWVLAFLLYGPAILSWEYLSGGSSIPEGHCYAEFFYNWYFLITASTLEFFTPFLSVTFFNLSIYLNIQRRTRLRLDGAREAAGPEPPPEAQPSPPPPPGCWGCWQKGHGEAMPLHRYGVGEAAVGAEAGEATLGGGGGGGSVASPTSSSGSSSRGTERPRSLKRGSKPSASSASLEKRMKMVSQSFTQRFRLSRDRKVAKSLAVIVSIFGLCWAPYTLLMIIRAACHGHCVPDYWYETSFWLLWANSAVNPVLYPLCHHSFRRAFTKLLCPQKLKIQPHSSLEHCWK

`c1cc(CN2CCCCC2)cc(OCCCNc2nc3ccccc3s2)c1` [zolatidine]: the pKD values worked out at 6.46 ± 0.07 in assay [1] (agonist N-α-methylhistamine); 6.52 ± 0.06 in assay [1] (agonist R-α-methylhistamine); 6.54 ± 0.07 in assay [1] (agonist S-α-methylhistamine); 6.38 ± 0.10 in assay [1] (agonist VUF 8430); 6.51 ± 0.07 in assay [1] (agonist histamine); 6.62 ± 0.08 in assay [1] (agonist imetit). The pKD values was 6.66 ± 0.05 in assay [1] (agonist immethridine), 6.52 ± 0.10 in assay [1] (agonist impentamine (first component of the response)) and 6.78 ± 0.06 in assay [1] (agonist proxyfan). Also, the Schild slope is given as 1.10 ± 0.12 in assay [1] (agonist N-α-methylhistamine); 1.04 ± 0.04 in assay [1] (agonist R-α-methylhistamine); 1.10 ± 0.07 in assay [1] (agonist S-α-methylhistamine); 1.01 ± 0.04 in assay [1] (agonist histamine); 1.17 ± 0.05 in assay [1] (agonist imetit); 1.18 ± 0.08 in assay [1] (agonist immepip). Besides, the figures for the Schild slope in assay [1] (agonist immethridine) and in assay [1] (agonist proxyfan) were 0.96 ± 0.02 and 0.91 ± 0.11, respectively. Also, the “intrinsic activity response in 3H-cAMP accumulation” value in assay [2] was “No responses”. The Kd in assay [3] was 0.282 µM.
